Results: PMC9841531, “Indole Derivatives as New Structural Class of Potent and Antiproliferative Inhibitors of Monocarboxylate Transporter 1 (MCT1; SLC16A1)” (Journal of Medicinal Chemistry, 2022)

What was measured:
[1] = system: MCT1-expressing A-549 cells; assay: MTT-based efficacy assay, 33 in combination with test compound, A-549; assay type: cell-based; settings: Homo sapiens, A549; 33 alone, 72 h; read-out: A-549 cell toxicity 33 + 0 nM test cmpd. GI50 ± SEM
Protocol: MCT1 inhibition anticipates challenging cancer cell energy supply and, thus, increases the efficacy of anticancer agents.
For this purpose, 10 μL of compounds 24 or 30 (50 nM, 100 nM, or 500 nM) was transferred onto a colorless flat-bottom 96-well microplate and complemented with 180 μL of a cell suspension containing either approximately 5,000 A-549 cells. A dilution series of compound 33 at concentrations between 50 nM and 50 μM was generated, and 10 μL of each concentration was transferred onto the plate. The observed effects of compounds 24 and 30 were compared to the effect of compound 33 alone on A-549. The plates were incubated for 72 h at 37 °C and a 5% CO2-humidified atmosphere, before subsequent processing with the regular MTT assay as described above.[43]

A2780 cells = assay: MTT-based cell toxicity of 33 on sensitive A2780 cells; settings: Homo sapiens, 33 alone, 72 h, read-out: A2780 cell toxicity 33 + 0.0 μM cmpd. GI50 ± SEM
Protocol: (§1) This sensitization is indicated by a shift of the concentration-effect curve of compound 33 from the right (=high concentrations of 33 needed to induce A2780/ADR cell death) to the left (=lower concentrations of 33 needed to induce A2780/ADR cell death). The concentration-effect curve of compound 33 in combination with 5 μM of either compound 24 or 30 resembles the concentration-effect curve of the sensitive cell line A2780. […] Thus, their potentiating effect with respect to the antiproliferative agent 33 against ABCB1-expressing A2780/ADR cells is due to the inhibition of ABCB1. Therefore, compounds 24 and 30 were dually effective against MCT1- and ABCB1-expressing cells (Table 5).
(§2) An MDR-reversal assay[2],[55]−[59] was used to investigate the ability to reverse ABCB1-mediated MDR in A2780/ADR cells toward the cytotoxic ABCB1 substrate 33. […] A dilution series of 33 at concentrations between 0.1 μM and 100 μM was generated, and 20 μL of each concentration was transferred onto the plates (final concentration: 0.01–10 μM). The plates were incubated for 72 h at 37 °C and a 5% CO2-humidified atmosphere, before subsequent processing with the regular MTT assay as described above. The observed effects of compounds 24 and 30 were compared to the effect of 33 alone on A2780/ADR cells as well as its sensitive counterpart A2780 (∼10,000 cells/well).

A-549 cells = assay: cell cycle distribution analysis, PI flow cytometry; assay type: cell-based; settings: 5 μM, 24 h
Protocol: The antineoplastic agent 33 (5 μM) was used as a reference. […] Compound 24 caused a disruption of the cell cycle of A-549 cancer cells, indicated by a shift from the predominant G0/G1 phase (Figure 8A) to the apoptotic sub-G1 phase as well as the G2/M phase (Figure 8B). A similar G2/M arrest could be observed for reference compound 33 (Figure 8C); however, MCT1 inhibitor 24 led to a larger fraction of cells into the sub-G1 phase, indicating induced apoptosis. This experiment discovered that compound 24 inhibits cell proliferation, causing cell cycle arrest and, eventually, apoptosis. To confirm our findings, we conducted an apoptosis assay using compound 24.
A standard PI staining procedure was used as described earlier[44]−[46] to determine the effect of compounds 24 and 33 on cell cycle progression, followed by flow cytometry analysis (FACS Aria SORP and FACS Aria Fusion, BD Biosciences, Franklin Lakes, NJ). In brief, A-549 cells were seeded onto a 6-well plate (250,000 cells/well) and incubated for 24 h at 37 °C under a 5% CO2-humidified atmosphere before being observed under a microscope. The cells were treated with compound 24 (5 μM) or 33 (5 μM) and further incubated for 24 h at 37 °C under a 5% CO2-humidified atmosphere. Then, the cells were harvested and washed twice with cold PBS (Genetix Biotech Asia, New Delhi, India) before being fixed overnight in ice-cold 70% (v/v) ethanol at 4 °C. The cells were again washed two times with PBS and subsequently resuspended with RNase (100 μg/mL; HiMedia, Mumbai, India) and their DNA was stained with PI (40 μg/mL; Sigma-Aldrich, Mumbai, India) before being incubated in the dark for 10 min. The DNA content was measured at the Indian Institute of Technology Bombay (IITB, Mumbai, India) by applying flow cytometry.

[2] = system: ABCB1-expressing A2780/ADR cells; assay: MTT-based efficacy (MDR-reversal) assay, 33 in combination with test compound, A2780/ADR; assay type: cell-based; settings: A2780 ADR; 33 alone, 72 h; read-out: A2780/ADR cell toxicity 33 + 0.0 μM cmpd. GI50 ± SEM
Protocol: as §1, §2

In the case of `COc1cccc2c1C(=O)c1c(O)c3c(c(O)c1C2=O)C[C@@](O)(C(=O)CO)C[C@@H]3O[C@H]1C[C@H](N)[C@H](O)[C@H](C)O1` [Compound 33, doxorubicin, reference compound], the GI50 [1] is reported as 47.6 ± 0.7 nM, the GI50 (A2780 cells) is reported as 19.4 ± 1.7 nM and the “cells in G0/G1 phase” value (A-549 cells) is reported as 41.1%. For the same molecule, the “cells in G2/M phase” value (A-549 cells) was 26.2%, the “cells in S phase” value (A-549 cells) was 27.4% and the “cells in Sub-G1 phase” value (A-549 cells) was 4.00%. The GI50 [2] was 802 ± 81 nM.
